Values of other authors as cited in patent publication US20140271927A1, “COMPOSITION AND METHOD FOR TREATING NEUROPATHY” (priority 2013, published 2014).

Settings: published studies reviewed

[Cr] [chromium]
lowering the HbgAlc: 1-2%
